# From paper PMC2868945 (Bioorganic & medicinal chemistry, 2010)
# Where “and” joins values, the source holds several entries; their conditions need not be identical. Equal entries are not always repeated. Entries after “also recorded” stand apart in the source; their conditions may differ.
# Columns and labels:
# [1] = biological target: recombinant lumazine synthase of M. tuberculosis (Mycobacterium tuberculosis, UniProt P9WHE9); experiment: Kinetic assay of lumazine synthase inhibitors; type: biochemical; conditions: for inhibitory activity against lumazine synthase (in words): M. tuberculosis LS; for Kcat (rate constant for ES ⇌ E + P) / Mechanism / Kis (inhibitor dissociation constant for ES + I ⇌ ESI): LS; for Kcat (rate constant for ES ⇌ E + P): fit parameter of the inhibitor's data set; for Mechanism: most likely inhibition model (DynaFit); for Kis (inhibitor dissociation constant for ES + I ⇌ ESI): pH 7.0, 27 °C, pyrimidinedione substrate varied
# Chain of recombinant lumazine synthase of M. tuberculosis (P9WHE9 whole entry): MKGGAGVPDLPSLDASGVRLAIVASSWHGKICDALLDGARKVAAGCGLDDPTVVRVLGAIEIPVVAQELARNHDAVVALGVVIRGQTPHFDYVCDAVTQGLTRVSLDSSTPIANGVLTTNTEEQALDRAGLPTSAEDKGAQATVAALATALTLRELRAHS
# [2] = biological target: recombinant riboflavin synthase of M. tuberculosis (Mycobacterium tuberculosis, UniProt P9WK35); experiment: Kinetic assay of riboflavin synthase inhibitors; type: biochemical; conditions: for inhibitory activity against riboflavin synthase (in words): M. tuberculosis RS; for Kis (inhibitor dissociation constant for ES + I ⇌ ESI): pH 7.0, 27 °C; for Mechanism: most likely inhibition model (DynaFit)
# Chain of recombinant riboflavin synthase of M. tuberculosis (P9WK35 whole entry): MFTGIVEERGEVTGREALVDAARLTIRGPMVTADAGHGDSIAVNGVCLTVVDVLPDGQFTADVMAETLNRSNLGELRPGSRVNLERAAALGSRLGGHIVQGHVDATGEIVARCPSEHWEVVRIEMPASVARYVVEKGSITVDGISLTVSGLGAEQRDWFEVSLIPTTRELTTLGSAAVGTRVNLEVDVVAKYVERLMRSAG
# [3] = biological target: T1, M. tuberculosis lumazine synthase (Mycobacterium tuberculosis, UniProt P9WHE9); conditions: cited from earlier work
# T1 sequence (P9WHE9 whole entry): as the sequence (P9WHE9 whole entry) above
# [4] = biological target: T1, M. tuberculosis lumazine synthase; experiment: biochemical; type: binding; conditions: for binding enthalpy ΔH: 100 mM potassium phosphate buffer, pH 7.0, 30 °C, apparent; for entropy ΔS of binding: calculated from ΔG = ΔH − TΔS
# [5] = biological target: icosahedral lumazine synthase from Bacillus anthracis (Bacillus anthracis, UniProt Q81MB5); type: binding
# Chain of icosahedral lumazine synthase from Bacillus anthracis (Q81MB5 whole entry, looked up): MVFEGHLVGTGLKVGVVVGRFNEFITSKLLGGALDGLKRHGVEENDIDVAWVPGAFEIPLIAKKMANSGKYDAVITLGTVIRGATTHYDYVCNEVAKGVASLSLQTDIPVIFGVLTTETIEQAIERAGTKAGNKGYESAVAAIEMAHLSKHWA
# [6] = biological target: pentameric lumazine synthase from Schizosaccharomyces pombe (Schizosaccharomyces pombe, UniProt Q9UUB1); type: binding; conditions: same experimental limits as for the M. tuberculosis enzyme
# Chain of pentameric lumazine synthase from Schizosaccharomyces pombe (Q9UUB1 whole entry): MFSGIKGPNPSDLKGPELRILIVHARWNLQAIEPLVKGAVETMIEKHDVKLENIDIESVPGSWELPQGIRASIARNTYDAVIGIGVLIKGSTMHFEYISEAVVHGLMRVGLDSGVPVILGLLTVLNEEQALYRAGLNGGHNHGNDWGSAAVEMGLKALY
# [7] = RS, fit parameter of the inhibitor's data set
Compound,inhibitory activity against lumazine synthase (in words) [1],inhibitory activity against riboflavin synthase (in words) [2],Kcat (rate constant for ES ⇌ E + P) [1] [m^−1],Mechanism [1],Kis (inhibitor dissociation constant for ES + I ⇌ ESI) [1],"Ks (substrate dissociation constant for E + S ⇌ ES) [2, 7] [µM]",Kis (inhibitor dissociation constant for ES + I ⇌ ESI) ([2]; RS) [µM],other results
"1,1-Difluoro-4-(2-oxo-1,2-dihydrobenzo[cd]indole-6-sulfonamido)butylphosphonic Acid [Compound 71]",inactive,inactive,,,,,,
"1,1-Difluoro-4-(2-oxo-1,2-dihydrobenzo[cd]indole-6-sulfonamido)hexylphosphonic Acid [Compound 73]",inactive,inactive,,,,,,
"1,1-Difluoro-4-(2-oxo-1,2-dihydrobenzo[cd]indole-6-sulfonamido)pentylphosphonic Acid [Compound 72]",poor inhibitory activity,inactive,0.57 ± 0.01,Mixed,518 µM and 518 ± 94 µM,4.1 ± 0.3,> 1000,
"4-(2-Oxo-1,2-dihydrobenzo[cd]indole-6-sulfonamido)pentylphosphonic Acid [Compound 55]",absolutely no inhibitory activity,,,,,,,
"5-(2-Oxo-1,2-dihydrobenzo[cd]indole-6-sulfonamido)hexyl Dihydrogen Phosphate [Compound 40]",,"weak, uncompetitive inhibitors",0.45 ± 0.01,Uncompetitive,723 ± 91 µM,9.8 ± 0.6,898 ± 187,"Kcat (rate constant for ES ⇌ E + P) [2, 7]: 0.56 ± 0.01 m^−1; Mechanism ([2]; RS): Uncompetitive"
"O=C(O)CNS(=O)(=O)c1ccc2c3c(cccc13)C(=O)N2 [Compound 9, 2-(2-oxo-1,2-dihydrobenzo[cd]indole-6-sulfonamido)acetic acid]",demonstrated inhibition,,,,58 µM,,,
"O=c1[nH]c(Cl)c(CCCCOP(=O)(O)O)c(=O)[nH]1 [Compound 11, 4-(6-chloro-2,4-dioxo-1,2,3,4-tetrahydropyrimidin-5-yl)butyl dihydrogen phosphate]",,,,,,,,Ki ([3]; M. tuberculosis lumazine synthase): 0.88 µM; inhibition constant (in words) ([3]; lumazine synthase): nanomolar range
"O=C1Nc2ccc(S(=O)(=O)NCCOP(=O)(O)O)c3cccc1c23 [Compound 26, 2-(2-Oxo-1,2-dihydrobenzo[cd]indole-6-sulfonamido)ethyl Dihydrogen Phosphate]",,,0.41 ± 0.01,Partial,125 ± 57 µM,5.7 ± 0.04,> 1000,
"O=C1Nc2ccc(S(=O)(=O)NCCCOP(=O)(O)O)c3cccc1c23 [Compound 27, 3-(2-Oxo-1,2-dihydrobenzo[cd]indole-6-sulfonamido)propyl Dihydrogen Phosphate]",,,0.45 ± 0.01,Mixed,434 ± 115 µM,5.6 ± 0.04,> 1000,"Kd [4]: 112 µM; binding enthalpy ΔH ([4]; ITC): -5.2 ± 0.7 kcal/mol; entropy ΔS of binding ([4]; ITC, 30 °C): 0.98 cal·mol^−1·deg^−1"
"O=C1Nc2ccc(S(=O)(=O)NCCO)c3cccc1c23 [Compound 31, N-(2-Hydroxyethyl)-2-oxo-1,2-dihydrobenzo[cd]indole-6-sulfonamide]",totally inactive,,,,,,,
"CCC(O)CNS(=O)(=O)c1ccc2c3c(cccc13)C(=O)N2 (stereo not drawn) [Compound 32, N-(2-Hydroxybutyl)-2-oxo-1,2-dihydrobenzo[cd]indole-6-sulfonamide]",totally inactive,,,,,,,
"O=C1Nc2ccc(S(=O)(=O)NCCCCCO)c3cccc1c23 [Compound 33, N-(5-Hydroxypentyl)-2-oxo-1,2-dihydrobenzo[cd]indole-6-sulfonamide]",totally inactive,,,,,,,
"O=C1Nc2ccc(S(=O)(=O)NCCCCOP(=O)(O)O)c3cccc1c23 [Compound 38, 4-(2-Oxo-1,2-dihydrobenzo[cd]indole-6-sulfonamido)butyl Dihydrogen Phosphate]",,,0.44 ± 0.01,Mixed,572 ± 210 µM,6.5 ± 0.3,> 1000,"Kd [4]: 130 µM; binding enthalpy ΔH ([4]; ITC): -7.6 ± 1.3 kcal/mol; entropy ΔS of binding ([4]; ITC, 30 °C): −7.2 cal·mol^−1·deg^−1; stoichiometry (n) of the binding reaction ([4]; ITC, 30 °C, inhibitor molecules per active site): 1; binding detected by titration calorimetry (in words) [5]: do not indicate a binding reaction; also recorded: did not detect binding; binding detected by titration calorimetry (in words) [6]: do not indicate a binding reaction; also recorded: did not detect binding"
"O=C1Nc2ccc(S(=O)(=O)NCCCCCOP(=O)(O)O)c3cccc1c23 [Compound 39, 5-(2-oxo-1,2-dihydrobenzo[cd]indole-6-sulfonamido)pentyl Dihydrogen Phosphate]",,"weak, uncompetitive inhibitors",0.45 ± 0.01,Uncompetitive,563 ± 56 µM,9.8 ± 0.6,971 ± 179,Mechanism ([2]; RS): Uncompetitive
"O=C1Nc2ccc(S(=O)(=O)NCCCCP(=O)(O)O)c3cccc1c23 [Compound 54, 4-(2-Oxo-1,2-dihydrobenzo[cd]indole-6-sulfonamido)butylphosphonic Acid]",absolutely no inhibitory activity,,,,,,,
"CCOC(=O)C(=O)Nc1c(Cl)[nH]c(=O)[nH]c1=O [Compound 77, Ethyl 2-(6-Chloro-2,4,dioxo-1,2,3,4-tetrahydropyrimidin-5-ylamino)-2-oxoethanoate]",,"weak, uncompetitive inhibitors",0.61 ± 0.02,Mixed,> 1000 µM,7.8 ± 0.3,897 ± 104,Mechanism ([2]; RS): Uncompetitive
